In patent publication US11020392B2, “Use of trimetazidine as a hepatoprotective medicine in prevention and treatment of liver diseases and conditions” (Martin Pharmaceuticals, Inc., priority 2015, dated 2021):

Tests used:
liver failure patients [1] = assay: Clinical cohort study of trimetazidine in hepatic failure patients (ALT/AST decrease, TMZ vs DCA); assay type: in vivo, human; conditions: after 5 days of treatment, both groups also on basic treatment incl. LOLA, FIG. 2
Excerpt: The single-center cohort study was adopted as the clinical trial method.
In accordance with relevant references and the results of previous trials, the number of cases shall be no less than 50. Taking into account the number of loss to follow up and possible drop-out (to be controlled around 10%), 60 cases are required to be selected (30 cases for the trial group and 30 cases for the control group).
All serious hepatitis patients enrolled between Aug. 19, 2014 and […] were put in the control group; and all those enrolled between December 9 and the application date were in the trial group.
2. Exclusion Criteria • Patients under 18 or over 70 years old; • Patients diagnosed with shock liver (ischemic liver disease); • Patients with liver failure in pregnancy or HELLP syndrome; • Patients with liver failure secondary to malignant tumor in the liver; • Patients with refractory hypotension • Patients with septic shock; • Patients about to receive liver transplant (within 8 hours); • Patients allergic to trimetazidine drug; • Patients […] of trimetazidine drug; • Abuser of drugs and/or alcohol; • Pregnant or lactation women; • Patients with recent myocardial infarct (within half a year); • Patients with serious renal inadequacy.
2. Control group: Diisopropylamine Dichloroacetate (DCA) (80 mg/D) for the control group in this trial, provided by Dandong Yichuang Pharmaceutical Co., Ltd, for a 4-week course of treatment.
3. Both trial group and control group were also given basic treatment to meet ethical requirements. […] HBV-related liver failure patients were also treated with lamivudine.
1. Alanine aminotransferase (ALT), tested by chromatometry, with products provided by Roche Diagnostics (Shanghai) Ltd.
2. Aspartate transaminase (AST), tested by chromatometry, with products provided by Roche Diagnostics (Shanghai) Ltd.

liver failure patients [2] = assay: Large-scale randomized clinical trial, 165 liver failure patients (control, LOLA, TMZ+LOLA)
Excerpt: We recruited totally 298 patients with liver failure according to the American and European criteria.

Chang liver cells = assay type: cell-based; conditions: 10 mM NH4Cl; 1 mM LOLA, 1 mM TMZ, or 1 mM TMZ+1 mM LOLA; hypoxic (10% O2); FIG. 7
Description: Chang liver cells (American Type Culture Collection No. CCL-13) was cultured in RPMI1640 medium (Solarbio) containing 10% fetal bovine serum (Gibco), 100 u/mL penicillin and 100 μg/mL […], at 37° C. and under hypoxic conditions (10% O2, 5% CO2) and saturated humidity.

[3] = system: patients with liver failure / serious hepatitis; assay: Clinical cases: individual patients given oral TMZ on top of combined treatment; assay type: in vivo, human
Excerpt: Case 1: The patient had past positive HBsAg for over 20 years, during which they took multiple reexaminations of liver function and, as the results of all color ultrasound examinations were within normal range, they were not given any special treatment. Three months before, after catching cold and overwork, they developed abdominal distension and yellow urine, and was admitted to hospital following aggravation of the condition over 6 days. On admission, they were complicated with massive seroperitoneum and serious xanthochromia throughout the skin and mucosa of their whole body, feeling serious nausea, anorexia and feebleness.
Case 2: had had yellow urine for 25 days and dry mouth and bitter taste in mouth for 10 days before they came to the First Affiliated Hospital of Zhengzhou University. […] If they had been treated with the original approach, it would probably have taken two months before they could be discharged from hospital.
Case 3: had past positive HBsAg for 8 years, without regular treatment or periodic reexamination of relevant indicators. […] They took orally some “stomach medicine” (specific medicine not known) with poor effect. After the aforesaid symptoms aggravated for half a month, with urine turning as yellow as strong tea water, they were admitted to the First Affiliated Hospital of Zhengzhou University on Jan. 21, 2015. […] In merely 12 days, the patient achieved decrease of transaminase by dozens of times, relief from the critical condition, alleviated hepatocyte inflammatory responses and a favorable condition for liver cells, and greatly shortened length of hospitalization.
Case 4: […] They felt abdominal distension and nausea, accompanied with hydroncus in lower limbs, when they were tired half a month ago. For further treatment, they were admitted to the First Affiliated Hospital of Zhengzhou University on Jan. 13, 2015. Color ultrasound examination of abdomen detected diffuse changes of echo patterns of liver, cholecystolithiasis and cholecystitis. […] The patient's liver enzyme decreased to normal level after a short period, meeting the requirements for a surgical operation. Following the operation, their abdominal pain disappeared, with liver enzyme back to normal level and improved appetite. Their quality of life improves now without any discomfort.
Case 5: had past positive HBsAg for over 10 years, with HBsAg (+), HBeAg (+) and HBcAb (+), and had atrial fibrillation over 5 years, during which they orally took traditional Chinese medicine intermittently, but without regular treatment. They complained of feebleness, nausea, dry mouth and bitter taste, and anorexia for 6 days, and was hospitalized on Jan. 31, 2015. After admission, they had ALT 1881 u/L, AST 699 u/L, and prothrombin time activity (PTA) at 26%. The patient was extremely weak, in very poor spirits, with very poor appetite. A notice of critical illness diagnosis was given. […] The patient achieved a rapid decrease of transaminase and obvious improvement of liver synthesis function, and was safe from the critical condition. They continued to take the medicine till maturity of the treatment course, to improve the hepatocyte microcirculation and excretion of bilirubin. The patient soon recovered and left hospital.

SD rats = assay: Hyperammonemia rat model (oral ammonium chloride, 30 days); assay type: in vivo; conditions: OA (LOLA) 0.8 g/kg, TMZ 0.002 g/kg orally, or both; FIG. 8
Excerpt: All five groups of rats were sacrificed after 30 days with pentobarbital anesthesia. Cardiac blood samples were collected to test blood levels of ammonia, ALT and AST. Liver biopsy specimens were collected and subject to hematoxylin-eosin (HE) staining and TUNEL staining to assess pathology.

[4] = system: liver of liver failure patients; assay: PET-CT imaging of liver FDG uptake before and after treatment; assay type: in vivo, human; conditions: liver failure patient(s), after vs before treatment; FIG. 4
Excerpt: Intriguingly, we were able to compare the PET-CT images before and after liver failure recovery in two participants who underwent PET-CT imaging due to suspicious liver lesions by magnet renascence imaging.

With Diisopropylamine Dichloroacetate [DCA] the “ALT decrease (k, mathematical model)” value (liver failure patients [1]) was 67.325 and the “AST decrease (k, mathematical model)” value (liver failure patients [1]) was 142.77.
In the case of `COc1ccc(CN2CCNCC2)c(OC)c1OC.Cl.Cl` [TMZ, 1-[2,3,4-trimethoxybenzyl]piperazine dihydrochloride], the 30-day immortality rate (liver failure patients [2]; TMZ treatment group (TMZ+LOLA), TMZ 20 mg orally three times a day, 4 weeks, 44% with traditional therapeutic approach, FIG. 5) is reported as “approximately 18%”, the 90-day immortality rate (liver failure patients [2]; TMZ treatment group (TMZ+LOLA), TMZ 20 mg orally three times a day, 4 weeks, 68% with traditional therapeutic approach, FIG. 5) is reported as 35% and the “serious adverse reaction during the clinical trial” value (liver failure patients [2]; liver failure patients, TMZ 20 mg three times a day) is reported as “no serious adverse reaction occurred”. For the same molecule, the “reduction of ammonia in hepatocytes” value (Chang liver cells) was “greater effects compared to both LOLA treatment and TMZ+LOLA co-treatment”, the ALT ([3]; Case 1, HBsAg positive person, 12 days of TMZ one tablet three times a day plus combined treatment, ALT 270 u/L at admission) was 41 u/L and the AST ([3]; Case 1, 12 days of TMZ, AST 303 u/L at admission) was 68 u/L. The ALT ([3]; Case 2, serious drug-induced hepatitis, oral TMZ 20 days plus combined treatment, ALT 983 u/L at admission) was 95 u/L, the total bilirubin ([3]; Case 2, oral TMZ 20 days, 401.9 umol/L at admission) was 130 µmol/L and the AST ([3]; Case 2, oral TMZ 20 days, AST 484 u/L at admission) was 52 u/L. For the same molecule, the ALT ([3]; Case 3, acute-on-chronic liver failure, oral TMZ plus antiviral treatment, admitted Jan. 21, reexamined February 5 (12 days), ALT 1386 u/L at admission) was 76 u/L, the AST ([3]; Case 3, reexamined February 5, AST 1368 u/L at admission) was 85 u/L and the ALT ([3]; Case 4, HBsAg positive person, oral TMZ 13 days plus hepatoprotective and antiviral treatment, ALT 599 u/L before) was 66 u/L. The AST ([3]; Case 4, oral TMZ 13 days, AST 663 u/L before) was 79 u/L, the “prothrombin time activity (PTA)” value ([3]; Case 5, one week of oral TMZ, 26% at admission) was 48% and the AST ([3]; Case 5, one week of oral TMZ, AST 699 u/L at admission) was 77 u/L. For the same molecule, the “ALT decrease (k, mathematical model)” value (liver failure patients [1]) was 259.4, the “AST decrease (k, mathematical model)” value (liver failure patients [1]) was 362.53 and the “integrity of mitochondrial structure in hepatocytes exposed to ammonia (electron microscope)” value (SD rats) was “nearly reversed the ammonia-induced mitochondria injury”. The “FDG uptake / hepatic glucose metabolism of liver (PET-CT)” value [4] was “remarkably improved”.
